Results as given in US20260240846A1, “ZAK ALPHA KINASE (MAP3K20) INHIBITORS FOR USE IN THE TREATMENT OF ANEMIA” (UNIVERSIDAD DE MURCIA, priority 2023, published 2026).

Legend:
K562 cells = test: Erythroid differentiation assay in K562 cells (hemin; hemoglobin accumulation, western blot); assay type: cell-based, human
Procedure: FIG. 1. ZAKα/P38 signaling pathway is activated in K562 after erythroid differentiation and its inhibition facilitates terminal erythroid differentiation. K562 cells were pre-treated with 0.1 μM nilotinib (Nil) (A, C, D), 1 μM anisomycin (B) and/or the indicated concentrations of the […] CX-5461 for 24 h, and then differentiated with 50 μM hemin for another 24 h. Hemoglobin accumulation (A, B, D) and NLRP1, phosphorylated P38, GATA1, ZAKα and ACTB (A-C) amounts were then evaluated by western blot. Immunoblots are representative of 3 independent experiments. #1, ACTB; #2, GATA1.
FIG. 2. The ZAKα/P38 signaling pathways is activated in K562 after erythroid differentiation. K562 cells were pre-treated with 0.1 μM nilotinib for 24 h and then differentiated with 50 μM hemin for the indicated times. The amounts of NLRP1, GATA1, phosphorylated P38, total ZAKα, phosphorylated ZAKα (Phos-tag) and ACTB were then evaluated by western blot.
FIG. 10. Imatinib and dasatinib promote erythropoiesis in human and zebrafish. (A) K562 cells were pretreated with the indicated concentrations of nilotinib, imatinib or dasatinib for 24 h and then differentiated with 50 μM hemin for 24 h. The amounts of NLRP1, GATA1, phosphorylated P38, total ZAKα and ACTB were then evaluated by western blot. (B) Zebrafish larvae were treated from 1 to 2 dpf with the indicated concentrations of nilotinib, imatinib or dasatinib. Representative images and number of neutrophils in larvae of 2 dpf treated by bath immersion with the indicated concentrations of imatinib and dasatinib. Each dot represents one individual and the mean±SEM for each group is also shown. P values were calculated by one-way ANOVA and Tukey's multiple range test. n.s., non-significant. ***P<0.001; ****P<0.0001.
FIG. 11. Ponatinib and bosutinib promote erythropoiesis in human and zebrafish. (A) K562 cells were pretreated with the indicated concentrations of nilotinib, ponatinib and bosutinib for 24 h and then differentiated with 50 μM hemin for the indicated times. The amounts of NLRP1, total ZAKα, GATA1, phosphorylated P38 and ACTB were then evaluated by western blot. (B) Number of neutrophils in larvae of 2 dpf treated by bath immersion with the indicated concentrations of ponatinib and bosutinib. Each dot represents one individual and the mean±SEM for each group is also shown. P values were calculated by one-way ANOVA and Tukey's multiple range test. n.s., non-significant, *P<0.05. **P<0.01. ***P<0.001.
K562 cells (CRL-3343; American Type Culture Collection) were maintained in RPMI culture medium supplemented with 10% fetal calf serum (FCS), 2 mM Glutamine, and 1% penicillin-streptomycin (Life Technologies). Cells were maintained and subcultured before confluence every 72 h. For differentiation, cells were treated with 50 μM hemin (#16009-13-5, Sigma-Aldrich) in the presence of 0.1% DMSO alone or with the caspase-1 inhibitor VX-765 (100 μM), the tyrosine kinase inhibitor nilotinib (0.1 μM), the RNA polymerase I inhibitor CX-5461 (200 nM, 1 μM and 10 μM) (all from MedChemExpress). Cells were collected at different time points (0, 24, 48 hours post-hemin addition), centrifuged, washed twice with PBS, and stored at −80° C. for further analysis.
Cells were lysed in 50 mM Tris-HCl (pH 7.5), 150 mM NaCl, 1% (w/v) NP-40 and fresh protease inhibitor (1/20, #P8340, Sigma-Aldrich). Protein quantification was performed with the BCA kit using BSA as standard. Cell lysates ([…]) in SDS sample buffer were subjected to electrophoresis on a polyacrylamide gel and transferred to nitrocellulose membranes. The membranes were incubated for 1 h with TTBS containing 5% (w/v) skimmed dried milk powder or 2% (w/v) BSA. The membranes were immunoblotted in the same buffer 16 h at 4° C. with the different primary antibodies diluted 1/1000. The blots were then washed with TTBS and incubated for 1 h at room temperature with secondary HRP-conjugated antibodies diluted 2,500-fold in 5% (w/v) skimmed milk in TTBS. […]

[1] = test system: bone marrow mononuclear cells of a DBA patient with a RPS19 mutation; test: Colony assay of BMMCs from a DBA patient in methylcellulose medium; assay type: cell-based, human; conditions: 2 weeks
Procedure: FIG. 6. NLRP1 is activated by phosphorylation of the linker domain after activation of ZAKα and pharmacological inhibition of this signaling pathway promotes erythropoiesis in DBA. (A-D) Number of neutrophils (A-C), and caspase-1 activity (D) in 2 dpf larvae obtained by injection of one-cell stage embryos with human NLRP1 (wild type-WT, S107A and S107D) and treated from 1 to 2 dpf by bath immersion with 1 μM nilotinib (B-D). Representative images of neutrophils (arrows) are also shown in C. (E, F) BMMCs from a DBA patient were incubated for 2 weeks in human methylcellulose complete medium at 37° C. in the presence or absence of the indicated concentrations of nilotinib, and colonies were counted using standard morphological criteria. Each dot represents one individual and the mean±SEM for each group is also shown. P values were calculated by one-way ANOVA and Tukey's multiple range test. n.s., non-significant; *P<0.05; **P<0.01; ***P<0.001; ****P<0.0001.
Bone marrow aspirates were collected at the Hospital General Universitario José Maria Morales Meseguer under CEIC approval number EST: 12/16. […] BMMCs were incubated in methylcellulose medium at 37° C. in a 5% CO2-humidified atmosphere in the presence of DMSO or nilotinib (0.01 and 0.1 μM), and colonies were counted at day 9 and 14 using standard morphological criteria.

ZAKα = ZAKα (Homo sapiens, UniProt Q9NYL2); conditions: cited from earlier work
ZAKα, sequence (Q9NYL2 whole entry): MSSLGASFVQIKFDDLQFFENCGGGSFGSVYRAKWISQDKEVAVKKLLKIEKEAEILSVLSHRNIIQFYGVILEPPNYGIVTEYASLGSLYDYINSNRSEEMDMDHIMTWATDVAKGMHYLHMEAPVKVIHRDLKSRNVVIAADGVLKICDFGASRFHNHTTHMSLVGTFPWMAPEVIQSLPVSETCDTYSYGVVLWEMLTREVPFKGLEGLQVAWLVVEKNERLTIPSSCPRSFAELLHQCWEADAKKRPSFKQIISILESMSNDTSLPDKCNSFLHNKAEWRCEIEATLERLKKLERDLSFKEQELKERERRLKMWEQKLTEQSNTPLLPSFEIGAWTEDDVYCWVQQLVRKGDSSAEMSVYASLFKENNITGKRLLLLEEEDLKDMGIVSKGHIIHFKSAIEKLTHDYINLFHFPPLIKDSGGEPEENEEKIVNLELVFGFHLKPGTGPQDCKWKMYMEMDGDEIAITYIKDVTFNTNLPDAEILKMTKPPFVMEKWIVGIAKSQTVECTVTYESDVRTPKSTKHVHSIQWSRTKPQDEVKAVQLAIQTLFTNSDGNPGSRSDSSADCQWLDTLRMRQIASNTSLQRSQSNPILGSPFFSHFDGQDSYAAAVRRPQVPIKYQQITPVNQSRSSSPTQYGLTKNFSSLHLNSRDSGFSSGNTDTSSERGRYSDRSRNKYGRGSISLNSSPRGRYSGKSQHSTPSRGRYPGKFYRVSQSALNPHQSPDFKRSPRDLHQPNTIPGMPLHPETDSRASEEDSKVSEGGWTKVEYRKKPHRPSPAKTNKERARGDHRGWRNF

[2] = K562 cells, 0.1 μM nilotinib 24 h, then 50 μM hemin, western blot

SMILES: Cc1cn(-c2cc(NC(=O)c3ccc(C)c(Nc4nccc(-c5cccnc5)n4)c3)cc(C(F)(F)F)c2)cn1 [nilotinib]
- erythroid differentiation of K562 (K562 cells; 0.1 μM nilotinib 24 h, with or without 50 μM hemin 24 h (FIG. 1A)): strongly promoted erythroid differentiation of K562, even in the absence of hemin
- haemoglobin accumulation (K562 cells; K562 cells, 0.1 μM nilotinib 24 h, then 50 μM hemin 24 h): increase in haemoglobin accumulation
- hemin-induced phosphorylation of ZAKα (K562 cells; K562 cells, 0.1 μM nilotinib 24 h, then 50 μM hemin, Phos-tag western blot): strongly reversed
- hemin-induced degradation of GATA1 (K562 cells; [2]): strongly reversed
- hemin-induced phosphorylation of P38 (K562 cells; [2]): strongly reversed
- expression of GATA1 (K562 cells; K562 cells, 0.1 μM nilotinib (FIGS. 1A and 2)): increased expression of GATA1
- accumulation of GATA1 in the presence of CX-5461 (K562 cells; K562 cells, 0.1 μM nilotinib plus CX-5461 24 h, then 50 μM hemin 24 h (FIG. 1C)): able to promote accumulation of GATA1
- abundance of ZAK alpha, phosphorylated ZAKα and P38, and NLRP1 (K562 cells; K562 cells, basal conditions, upon hemin-induced erythroid differentiation and upon anisomycin): Alter the abundance
- number of erythroid colonies ([1]; nilotinib 0.01 and 0.1 μM (FIG. 6E)): strongly increased
- number of myeloid colonies ([1]; nilotinib 0.01 and 0.1 μM (FIG. 6F)): not affected
- affinity for ZAKα (ZAKα): high affinity
